Test results from patent US20260376293A1, “METHODS FOR STUDYING GPR158 PHARMACOLOGY AND IDENTIFICATION OF ITS LIGANDS” (UNIVERSITY OF FLORIDA RESEARCH FOUNDATION, INCORPORATED, priority 2022, published 2026).

Biological target: T1, GPR158 (Homo sapiens, UniProt Q5T848)
T1 construct: expressed in transfected cells; host or cells: HEK293T/17
T1 sequence (Q5T848 24-1215): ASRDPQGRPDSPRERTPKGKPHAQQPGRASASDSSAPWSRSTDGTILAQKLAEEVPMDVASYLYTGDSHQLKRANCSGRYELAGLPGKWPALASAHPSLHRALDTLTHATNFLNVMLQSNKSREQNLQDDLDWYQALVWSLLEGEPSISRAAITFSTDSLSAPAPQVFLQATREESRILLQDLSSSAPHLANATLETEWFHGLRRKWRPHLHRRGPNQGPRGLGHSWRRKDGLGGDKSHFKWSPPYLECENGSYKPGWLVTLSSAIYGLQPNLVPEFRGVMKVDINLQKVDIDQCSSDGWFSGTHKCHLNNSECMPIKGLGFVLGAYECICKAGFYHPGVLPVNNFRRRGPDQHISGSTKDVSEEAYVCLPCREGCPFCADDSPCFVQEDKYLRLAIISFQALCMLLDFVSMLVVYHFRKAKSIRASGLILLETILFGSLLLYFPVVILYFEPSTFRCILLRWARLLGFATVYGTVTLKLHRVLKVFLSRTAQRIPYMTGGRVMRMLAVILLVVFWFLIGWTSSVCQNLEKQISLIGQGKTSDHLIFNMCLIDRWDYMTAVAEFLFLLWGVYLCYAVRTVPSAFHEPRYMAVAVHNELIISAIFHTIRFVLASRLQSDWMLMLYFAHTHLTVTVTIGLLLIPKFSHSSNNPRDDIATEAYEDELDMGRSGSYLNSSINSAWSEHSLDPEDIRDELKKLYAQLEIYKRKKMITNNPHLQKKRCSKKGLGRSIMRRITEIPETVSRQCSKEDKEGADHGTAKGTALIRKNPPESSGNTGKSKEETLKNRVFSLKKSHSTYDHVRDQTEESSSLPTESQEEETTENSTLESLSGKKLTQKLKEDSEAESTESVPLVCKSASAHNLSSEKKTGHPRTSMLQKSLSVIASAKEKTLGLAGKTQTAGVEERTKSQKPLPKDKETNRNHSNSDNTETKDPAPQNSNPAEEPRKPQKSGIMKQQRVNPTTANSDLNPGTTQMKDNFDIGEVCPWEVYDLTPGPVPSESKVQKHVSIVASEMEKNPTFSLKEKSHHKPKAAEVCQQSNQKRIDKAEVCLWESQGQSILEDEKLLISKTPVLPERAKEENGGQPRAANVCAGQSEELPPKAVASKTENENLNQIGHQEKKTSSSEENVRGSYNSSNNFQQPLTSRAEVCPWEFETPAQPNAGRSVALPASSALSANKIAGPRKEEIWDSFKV
T1 sequence (P49802 1-495 partner): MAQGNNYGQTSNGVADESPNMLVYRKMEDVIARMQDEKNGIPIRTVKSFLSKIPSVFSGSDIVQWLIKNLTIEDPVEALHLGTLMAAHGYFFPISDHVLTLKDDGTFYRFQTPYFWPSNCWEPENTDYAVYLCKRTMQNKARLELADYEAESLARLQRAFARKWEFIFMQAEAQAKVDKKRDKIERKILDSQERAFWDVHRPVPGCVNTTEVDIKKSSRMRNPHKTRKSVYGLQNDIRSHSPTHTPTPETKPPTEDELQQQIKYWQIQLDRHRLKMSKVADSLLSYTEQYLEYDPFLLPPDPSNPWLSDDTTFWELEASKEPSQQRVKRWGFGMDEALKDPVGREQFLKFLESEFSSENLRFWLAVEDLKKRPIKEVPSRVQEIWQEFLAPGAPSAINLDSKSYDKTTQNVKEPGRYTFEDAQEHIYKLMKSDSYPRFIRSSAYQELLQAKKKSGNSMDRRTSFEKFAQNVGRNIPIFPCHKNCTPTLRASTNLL
T1 sequence (O14775 1-395 partner): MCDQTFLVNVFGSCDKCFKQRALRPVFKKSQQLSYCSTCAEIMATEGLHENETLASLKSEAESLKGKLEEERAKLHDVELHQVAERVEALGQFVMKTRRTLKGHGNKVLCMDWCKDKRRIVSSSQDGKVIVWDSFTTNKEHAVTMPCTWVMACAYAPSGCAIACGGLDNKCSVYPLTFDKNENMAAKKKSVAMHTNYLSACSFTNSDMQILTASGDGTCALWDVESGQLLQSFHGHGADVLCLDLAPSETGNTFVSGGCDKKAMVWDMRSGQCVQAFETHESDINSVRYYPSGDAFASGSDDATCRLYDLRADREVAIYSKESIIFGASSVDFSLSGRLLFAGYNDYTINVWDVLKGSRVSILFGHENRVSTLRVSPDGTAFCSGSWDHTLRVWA
Test: HTRF cAMP Gαi assay, HEK293T/17 cells
Type: cell-based
Conditions: forskolin; GPR158-RGS7/Gβ5, HEK293T/17
Method: FIGS. 18A-18C: A. Schematic representation of HTRF Gαi CAMP assay. B. cAMP standard curve to establish assay window and dynamic range. The data shown here indicate the HTRF ratio plotted as a function of various concentrations of cAMP standards (0.17 nM to 712 nM). The curve fitting was performed using Nonlinear regression analysis in Graphpad Prism software. C. Gly treatment of GPR158-RGS7/Gβ5 expressing HEK293T/17 cells leads to depletion of cAMP levels in a concentration dependent manner. Data shown here represent the HTRF ratio normalized with respect to the buffer treated cells (control) (Mean±SEM from 1 experiment performed in triplicates).
HEK293T/17 cells were transfected with GPR158, RGS7 and Gβ5 plasmids as mentioned above by Maxcyte electroporation. 24 hours post transfection, cells were harvested by centrifugation, counted, and seeded in a white 384 well plate at a density of 6000 cells per well after resuspending in the stimulation buffer provided with the kit. […] The HTRF signal was measured using the HTRF optic module (donor excitation: 337 nm, donor emission: 620 nm, acceptor emission 665 nm) and laser energy source in the Pherastar FSX microplate reader (BMG Labtech).
The data were plotted as the ratio of fluorescence emission intensities by acceptor and donor (Em 665 nm/Em 620 nm). […]

NCC(=O)O [glycine]
HTRF signal change (cAMP decrease): increase in HTRF signal in a Gly dose dependent fashion
